{"source": "PubChem BioAssay AID372", "about": "(MTDP, 2006)", "note": "The source made the active and inactive calls. No stated cut-off is given here; in the data, active means inhibition above about 50%; inactive means the rest."}
{"target": "Gag-Pol polyprotein (Human immunodeficiency virus type 1 group M subtype B (isolate HXB2)) (UniProt P04585)", "assay": "RNase H inhibition, HIV 1 Gag Pol polyprotein, FRET biochemical assay, screening (AID 372)", "conditions": "HIV-1 RT RNase H, FRET RNA/DNA substrate fluorescence"}
{"compound": "N#C/C(=C\\Nc1ccc(S(=O)(=O)Nc2nccs2)cc1)c1nc(-c2ccc(Cl)cc2)cs1", "IC50": "4.1 µM"}
{"compound": "Oc1c(Br)cc(/C=N/Nc2nnc3c(n2)[nH]c2ccccc23)c(Br)c1O", "IC50": "4 µM"}
{"compound": "CCOc1cccc(N2C(=O)/C(=C/c3cn(CC(=O)OC)c4ccccc34)C(=O)NC2=S)c1", "IC50": "5.5 µM"}
{"compound": "Cc1ccc(NC(=O)c2c(NC(=O)C(F)(F)F)sc(-c3ccccc3)c2C)c(C)c1", "IC50": "2.8 µM"}
{"compound": "O=C(O)c1cc(-c2ccc(/C=C3/Sc4ccccc4C3=O)o2)ccc1O", "IC50": "3.3 µM"}
{"compound": "O=C1/C(=C/c2ccc(O)c(O)c2)SC(=S)N1C1CCCCC1", "IC50": "5.7 µM"}
{"compound": "COc1ccc(NC(=O)c2c(N)sc(-c3ccccc3)c2C)cc1", "IC50": "7 µM"}
{"compound": "Cc1ccccc1-n1c(O)c(C=C2C=CC=N2)c(=O)[nH]c1=S", "IC50": "10.2 µM"}
{"compound": "O=C1NN(c2ccc(I)cc2)C(=O)/C1=C\\c1ccc(O)c(O)c1", "IC50": "10.8 µM"}
{"compound": "O=C1C(Cl)=C/C(=N\\S(=O)(=O)c2ccccc2)C(Cl)=C1Cl", "IC50": "3.8 µM"}
{"compound": "O=C1NC(=S)N(c2ccccc2F)C(=O)/C1=C/c1ccc(I)o1", "IC50": "6.7 µM"}
{"compound": "Cc1ccc(S(=O)(=O)/N=C2\\C=CC(=O)C=C2Cl)cc1", "IC50": "1.5 µM"}
{"compound": "COc1ccc(/C=C\\C(=O)c2c(-c3ccccc3)c3cc(C)ccc3[nH]c2=O)c(OC)c1", "IC50": "22 µM"}
{"compound": "O=C(Cc1ccccc1Cl)c1ccc(O)c(O)c1O", "IC50": "2 µM"}
{"compound": "COc1ccccc1N=C(NOCc1ccc(Cl)cc1Cl)c1nonc1N", "IC50": "1.7 µM"}
{"compound": "Cc1cc(I)c2c(c1)C1C=CCC1C(C(=O)O)N2", "note": "(centres undefined)", "IC50": "100 µM"}
{"compound": "CCOc1ccc(N2C(=O)/C(=C/c3ccc(I)o3)C(=O)NC2=S)cc1", "IC50": "4.8 µM"}
{"compound": "NC(=O)c1c(NC(=O)COc2ccccc2)sc2c1CCCCC2", "IC50": "inactive"}
{"compound": "Nc1ccc(S(=O)(=O)O)c2cccc(O)c12", "IC50": "10 µM"}
{"compound": "O=C1NC(=S)N(c2ccc(Cl)cc2)C(=O)/C1=C/c1ccco1", "IC50": "8.9 µM"}
{"compound": "NC(=O)c1c(N)sc2c1CCCCC2", "IC50": "2 µM"}
{"compound": "O=C1/C(=C/c2ccc(O)c(O)c2)SC(=S)N1c1ccc(O)cc1", "IC50": "3.5 µM"}
{"compound": "Cc1ccc(C)n1-c1ccc(Br)cc1C(=O)O", "IC50": "32 µM"}
{"compound": "Cc1ccc(-c2c(C#N)c(SCC(=O)c3ccc(O)c(O)c3)nc3c2CCCC3)o1", "IC50": "6.5 µM"}
{"compound": "O=C1C=C/C(=N\\S(=O)(=O)c2cc(Cl)ccc2Cl)C=C1Cl", "IC50": "2 µM"}
{"compound": "O=C1Nc2ccc(I)cc2C1(O)N1CCOCC1", "note": "(centres undefined)", "IC50": "6.3 µM"}
{"compound": "O=C1NC(=S)N(c2ccccc2F)C(=O)/C1=C/c1ccc(OCc2cccc(C(=O)O)c2)cc1", "IC50": "9 µM"}
{"compound": "Cc1ccc(S(=O)(=O)/N=C2\\C=C(Sc3ncn[nH]3)C(=O)c3ccccc32)cc1", "IC50": "1.3 µM"}
{"compound": "O=C1/C(=C/c2ccco2)C(=O)N(c2ccc(Br)cc2)C(=S)N1c1ccccc1", "IC50": "10.2 µM"}
{"compound": "COc1cccc2cc(C(N)=O)c(=O)oc12", "IC50": "4 µM"}
{"compound": "COC(=O)c1c(N)sc(C(=O)Nc2ccc(OC)cc2)c1C", "IC50": "6.6 µM"}
{"compound": "Cc1cc(C(=O)O)ccc1-n1c(C)ccc1C", "IC50": "100 µM"}
{"compound": "Cc1ccc(N2C(=O)/C(=C/c3ccc(O)c(O)c3)SC2=S)cc1C", "IC50": "12 µM"}
{"compound": "Cc1cc(-c2ccco2)c(C#N)c(SCC(=O)c2ccc(O)c(O)c2)n1", "IC50": "1.4 µM"}
{"compound": "N#Cc1c(N)nc(SCC(=O)c2ccc(O)c(O)c2)c(C#N)c1-c1ccc(O)cc1", "IC50": "0.9 µM"}
{"compound": "Cc1sc(NC(=O)c2cccc([N+](=O)[O-])c2)c(C(N)=O)c1C", "IC50": "inactive"}
{"compound": "CCOc1ccc(NC(=O)c2c(NC(=O)c3ccccc3)sc3c2CCCCC3)cc1", "IC50": "inactive"}
{"compound": "Cc1ccc(C=C2C(=O)NC(=S)N(c3ccccc3Cl)C2=O)o1", "IC50": "8 µM"}
{"compound": "O=C(Oc1ccccc1)Oc1c(Cl)cc2oc(=O)sc2c1Cl", "IC50": "19 µM"}
{"compound": "Cc1ccc(-n2c(/C=C/c3ccc(O)c(O)c3)nc3ccccc3c2=O)cc1", "IC50": "3.8 µM"}
{"compound": "CC1=C(C)CC(C(=O)Nc2ccc(N3C(=O)c4ccccc4C3=O)cc2)C(C(=O)O)C1", "note": "(centres undefined)", "IC50": "100 µM"}
{"compound": "O=C1NC(=O)/C(=C/c2ccc(-c3ccc(O)c(C(=O)O)c3)o2)S1", "IC50": "4.2 µM"}
{"compound": "COc1ccc(-c2c(C#N)c(N)nc(SCC(=O)c3ccc(O)c(O)c3)c2C#N)cc1", "IC50": "1.8 µM"}
{"compound": "O=C1C=CC(=NS(=O)(=O)c2ccc(Cl)c([N+](=O)[O-])c2)C=C1", "IC50": "1.5 µM"}
